The numbers were not newly measured in patent publication US12223643B2, “Machine-learning system for diagnosing disorders and diseases and determining drug responsiveness” (Sanford Burnham Prebys Medical Discovery Institute, priority 2019, dated 2025), which cites them from elsewhere.

Each structure is given as a SMILES string.

The data set relates to bipolar disorder (BPD) patients.

Regarding `O=C([O-])[O-].[Li+].[Li+]` [Lithium carbonate], the “patients respond to lithium treatment” value is given as “approximately 35%” and the risk of suicide entry is on record as “reduce the risk of suicide”.
